{"source": "patent US20220054494A1", "about": "“METHODS FOR TREATING BLADDER AND URETHRA DYSFUNCTION AND DISEASE” (University of Pittsburgh - Of the Commonwealth System of …, priority 2019, published 2022)", "key": {"[1]": {"system": "dynamin-related protein (DRP-1)", "assay": "Western immunoblotting, DRP-1", "type": "in vivo, rat", "details": "aged rats; oral 8-AG 5 mg/kg/day, 6 weeks", "description": "Western immunoblotting: One half of each bladder preparation was homogenized using Lysing Matrix D in a FastPrep 24 instrument (MP Biomedicals, Solon, Ohio) in HBSS (5 mM KCl, 0.3 mM KH2PO4, 138 mM NaCl, 4 mM NaHO3, 0.3 mM Na2HCO3, 0.3 mM Na2HPO4, 5.6 mM glucose and 10 mM Hepes, pH 7.4) containing complete protease inhibitor cocktail (1 tablet/10 ml, ROCHE®, Indianapolis, Ind.)) and phosphatase inhibitor cocktail (SIGMA®, 1:100). After centrifugation (13000 rpm; 15 min at 4° C.), the membrane protein fraction was prepared by suspending the membrane pellets in lysis buffer containing 0.3 M NaCl, 50 mM Tris-HCl (pH 7.6) and 0.5% Triton X-100 and the same concentration of protease inhibitors as above. The suspensions were incubated on ice and centrifuged (13000 rpm; 15 min at 4° C.). The protein concentrations of the combined supernatants were determined using the PIERCE® BCA protein assay (THERMO SCIENTIFIC®, Rockford, Ill.). […] As a loading control, total protein per sample was determined using Bio-Rad® Stain Free SDS-PAGE gel technology. UV-activated protein fluorescence was imaged on a CHEMIDOC® MP (BIO-RAD®). […] The volume (intensity) of each protein species was determined and normalized to total protein using Image Lab software (BIO-RAD®)."}, "Rac 1": {"biological_target": "Rac 1 (Homo sapiens, UniProt P63000)", "details": "Jackson et al., J Am Heart Assoc 2018; cited from earlier work"}, "aged rats": {"system": "aged rats", "assay": "Von Frey testing of tactile sensitivity, aged rats", "type": "in vivo, rat", "description": "Von Frey testing: Forty-eight hours after metabolism studies, tactile sensitivity was measured (once per week for the duration of the study) using von Frey nylon filaments applied to the suprapubic and plantar hindpaw (Stoelting Co., Wood Dale, Ill., USA). The median 50% withdrawal threshold (using up-down method) with positive responses are recorded as sharp retraction, licking/scratching, or vocalization.\nVon Frey testing: Forty-eight h after the metabolism studies, tactile sensitivity was measured once per week using von Frey nylon filaments (Stoelting Co., Wood Dale, Ill., USA) applied to the suprapublic and plantar hindpaw. The median 50% withdrawal threshold (using an up-down method) with positive responses was recorded as sharp retraction, licking/scratching, or vocalization.\nVon Frey Testing: Forty-eight hr after the metabolic cage studies, tactile sensitivity was measured once per week for the duration of the study using von Frey nylon filaments (Stoelting Co., Wood Dale, Ill., USA) applied to the suprapublic and plantar hindpaw. The withdrawal threshold (using up-down method) was determined, with positive responses defined as sharp retractions, licking/scratching, or vocalizations."}, "[2]": {"details": "aged Fischer 344 rats, oral 8-AG 5 mg/kg/day, 6 weeks"}, "[3]": {"details": "aged Fisher 344 rats, 8-AG 5 mg kg/day via drinking water, 1 month"}, "[4]": {"details": "aged rats, intravesical 100 μM 8-AG plus 10 μM DEA-NONOate, daily infusion 3-6 weeks"}}, "note": "Entries after “also recorded” stand apart in the source; their conditions may differ.", "data": [{"smiles": "Nc1nc2[nH]c(N)nc2c(=O)[nH]1", "note": "[8-AG, 8-Aminoguanine]", "values": [{"measurement": "DRP-1 in bladder mucosa", "setting": "[1]", "result": "reversed or restored to levels similar to the younger state; also recorded: restored changes similar to a younger state"}, {"measurement": "Rac 1 inhibition (mechanism of reduced potassium excretion)", "setting": "Rac 1", "result": "inhibiting"}, {"measurement": "abdominal response to tactile mechanical stimuli", "setting": "aged rats; [2]", "result": "restored to a younger state"}, {"measurement": "somatic response to tactile mechanical stimuli", "setting": "aged rats; [2]", "result": "restored to a younger state"}, {"measurement": "abdominal tactile mechanical sensitivity", "setting": "aged rats; [3]", "result": "restored to a younger state; also recorded: reversed"}, {"measurement": "somatic tactile mechanical sensitivity", "setting": "aged rats; [3]", "result": "restored to a younger state; also recorded: reversed"}, {"measurement": "abdominal tactile mechanical sensitivity", "setting": "aged rats; [4]", "result": "increase in sensitivity; also recorded: improves"}, {"measurement": "somatic tactile mechanical sensitivity", "setting": "aged rats; [4]", "result": "increase in sensitivity; also recorded: improves"}]}]}
